In PMC3441713, “Citrullination of Histone H3 Interferes with HP1-Mediated Transcriptional Repression” (PLoS Genetics, 2012):
“Also recorded” adds a separate entry of the source.

Tests used:
[1] = test system: MCF7 cells; assay: RT-qPCR of HERV, repeat and immune gene mRNA in MCF7 cells; type: cell-based, human
Protocol: (§1) HP1 small interfering RNAs (siRNAs) were described previously. PADI4 (J-012471-05) and Glyceraldehyde-3-phosphate dehydrogenase control siRNAs were purchased from Dharmacon. Cells were harvested 72 h after transfection with DharmaFECT 1 (T 2001-03). Total RNA from PBMCs and MCF7 cells was extracted with RNeasy (Qiagen) and quantified with an ND-1000 (Nanodrop). After DNase treatment (Roche), reverse transcription was performed using SuperScript III (Invitrogen) and random hexanucleotides according to the manufacturer's instructions. Complementary DNA was quantified by RT-qPCR as previously described. Proteins were extracted as described previously and detected by Western blotting. Acid extraction of histones was conducted as described by Shechter, et al., [78].

[2] = test system: MCF7 cells; assay: Immunoblot of PADI4 and H3cit8K9me3 in MCF7 cells; type: cell-based, human
Description: Anti-H3cit8K9me3 antibody was produced in rabbits using a peptide coupled to KLH with the following sequence: ARTKQTA (cit)(Kme3)[…]. Anti-PADI4 (ChIP: P4749; immunoblots: ab50332), anti-H3cit(2,8,17) (ab5103), anti-H3(ab1791), and anti-H3K9me3 (ab8898) antibodies were purchased from Abcam. Anti-HP1α (ChIP: 1H5; immunoblots: 2G9) and anti-Brg1 (2E12) were from Euromedex. Calcium ionophore A23187 (used on HEK293 and MCF7 cells) and ionomycin (only ionophore tolerated by Jurkat cells), and 17-ß-estradiol (E2758) were purchased from Sigma. DNA was labeled with 4′,6-diamidino-2-phenylindole (DAPI; Invitrogen) at a concentration of 150 ng.ml^−1. […] Peptides were carefully quantified by amino acid analysis, and the presence of the modifications was confirmed by mass spectrometry. […]
as §1

[3] = test system: MCF7 cells; assay: ChIP on HERV LTRs and gene promoters in MCF7 cells; type: cell-based, human
Protocol: Values are averaged from 3 independent experiments.
Ionophores were used at 1 µM.

[4] = test system: Jurkat T cells; assay: PADI4 production in Jurkat T cells after estrogen/ionophore treatment (data not shown); type: cell-based
[5] = test system: Jurkat T cells; assay: RT-qPCR of TNFα, IL8 and PADI4 mRNA in Jurkat T cells; type: cell-based; settings: 200 µM Cl-amidine, 72 h; cells stimulated by ionomycin and PMA; duplicate
Protocol: (B) Total RNA was isolated from Jurkat cells either un-stimulated or treated with ionomycin and PMA for 2 hour. Changes in mRNA levels for the indicated genes were quantified by RT-qPCR. The data are presented as the means ± SEM of triplicate experiments. […] (D) Total RNA was isolated from Jurkat cells treated as in B minus or plus PADI-inhibitor cl-amidine as indicated. Changes in mRNA levels for the indicated genes were quantified by RT-qPCR. The data are presented as the means ± SEM of duplicate experiments.
Jurkat cells were treated with phorbol myristate acetate (PMA) at 40 nM. Ionophores were used at 1 µM. PADI4 inhibitor, Cl-amidine (from Bertin Pharma) was dissolved in 1× PBS as a 50 mM stock solution. MCF7 and Jurkat cells were treated with 200 µM Cl-amidine in complete cell culture medium for exactly 72 h.

[6] = E2 (200 nM, 24 h) + A23187 (5 µM, 30 min), minus or plus 200 µM Cl-amidine, relative to un-induced

| Compound | expression of HERV-H/env62, ERVWE1 and the selected cytokine genes [1, 6] | expression of HERV-H/env62 ([1]; E2 and A23187, 24 h, normalized to RPLP0, three replicates) | total levels of H3cit8K9me3 modification ([2]; 200 nM E2 24 h, then 5 µM A23187 30 min) | total levels of PADI4 ([2]; 200 nM E2 24 h, then 5 µM A23187 30 min in Locke's solution) | levels of citrullinated histone H3 at HERV-H, HERV-W/LTR and TNFα promoter ([3]; E2+A23187, anti-H3cit (2, 8, 17) or anti-H3cit8K9me3) | levels of HP1α recruitment at HERV-H, HERV-W/LTR and TNFα promoter ([3]; E2+A23187, anti-HP1α) | production of PADI4 [4] | expression of HERV-H/env62, ERVWE1 and the selected cytokine genes ([1]; 200 µM Cl-amidine, 72 h, no E2/A23187, four replicates) | levels of H3Cit8K9me3 ([2]; 200 µM Cl-amidine, 72 h) | levels of HP1α occupancy at HERV-H, HERV-W/LTR and TNFα promoter ([3]; E2+A23187 plus 200 µM Cl-amidine, anti-HP1α) | TNFα and IL8 mRNA accumulation [5] |
| --- | --- | --- | --- | --- | --- | --- | --- | --- | --- | --- | --- |
| 17-ß-estradiol [E2/A23187] | Cl-amidine-sensitive increase in expression | increases the expression | increases total levels | increases total levels; also recorded: induced | locally increases levels of citrullinated histone H3 | markedly decreased | stimulated production | – | – | – | – |
| NC(=O)[C@H](CCCN=C(N)CCl)NC(=O)c1ccccc1 [Cl-amidine] | Cl-amidine-sensitive increase in expression | – | – | – | – | – | – | reduced expression | decreased levels of H3Cit8K9me3 | partially restored | reduced the kinetic and the abundance |
